In patent US20070010671A1, “Novel quinazoline derivatives and methods of treatment related to the use thereof” (priority 2003, published 2007):

These compounds were tested against MCH receptor (Homo sapiens, UniProt Q99705) (assay: High throughput functional screening FLIPR/FDSS6000: inhibition of MCH-evoked intracellular Ca2+ changes). Details: class by percent of control at 10^-7 M or IC50.
Type: cell-based
Outline: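 Antagonism was measured as inhibition of calcium responses to 50 nM MCH, monitored 290 s at ex 488/em 530 nm on FLIPR or FDSS6000. Beforehand, cells bearing a constitutively active MCH receptor received Fluo4-AM (4 μM, 1 h, 37 °C) with probenecid, and test compound for 3 min.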

Structure (SMILES)	class
CN(C)c1nc(N[C@H]2CC[C@@H](NC(=S)Nc3ccc(Oc4ccc([N+](=O)[O-])cc4)cc3)CC2)nc2ccccc12 [compound 317]	3 (Class 3: The value of percent of control at 10^−7 M was more than 60% or the value of IC50 was more than 200 nM.)
CN(C)c1nc(N[C@H]2CC[C@@H](NC(=S)Nc3ccc(Sc4ccc([N+](=O)[O-])cc4)cc3)CC2)nc2ccccc12 [compound 318]	3 (Class 3: The value of percent of control at 10^−7 M was more than 60% or the value of IC50 was more than 200 nM.)
CN(C)c1nc(N[C@H]2CC[C@@H](NC(=S)Nc3ccc(S(N)(=O)=O)cc3)CC2)nc2ccccc12 [compound 319]	3 (Class 3: The value of percent of control at 10^−7 M was more than 60% or the value of IC50 was more than 200 nM.)
COc1ccc(NC(=S)N[C@H]2CC[C@@H](Nc3nc(N(C)C)c4ccccc4n3)CC2)c(C)c1 [compound 320, N-(cis-4-{[4-(dimethylamino)quinazolin-2-yl]amino}cyclohexyl)-N′-(4-methoxy-2-methylphenyl)thiourea]	1 (Class 1: The value of percent of control at 10^−7 M was less than 40% or the value of IC50 was less than 50 nM.)
COc1ccc(C(=O)NC(=S)N[C@H]2CC[C@@H](Nc3nc(N(C)C)c4ccccc4n3)CC2)cc1 [compound 321]	3 (Class 3: The value of percent of control at 10^−7 M was more than 60% or the value of IC50 was more than 200 nM.)
Cc1ccc(CCNC(=S)N[C@H]2CC[C@@H](Nc3nc(N(C)C)c4ccccc4n3)CC2)cc1 [compound 322]	3 (Class 3: The value of percent of control at 10^−7 M was more than 60% or the value of IC50 was more than 200 nM.)
CN(C)c1nc(N[C@H]2CC[C@@H](NC(=S)Nc3ccc(Oc4ccccc4)cc3)CC2)nc2ccccc12 [compound 323]	3 (Class 3: The value of percent of control at 10^−7 M was more than 60% or the value of IC50 was more than 200 nM.)
COc1cc(OC)c(NC(=S)N[C@H]2CC[C@@H](Nc3nc(N(C)C)c4ccccc4n3)CC2)cc1Cl [compound 324, N-(5-chloro-2,4-dimethoxyphenyl)-N′-(cis-4-{[4-(dimethylamino)quinazolin-2-yl]amino}cyclohexyl)thiourea]	1 (Class 1: The value of percent of control at 10^−7 M was less than 40% or the value of IC50 was less than 50 nM.)
CN(C)c1nc(N[C@H]2CC[C@@H](NC(=S)Nc3ccc4c(c3)CCC4)CC2)nc2ccccc12 [compound 325, N-(2,3-dihydro-1H-inden-5-yl)-N′-(cis-4-{[4-(dimethylamino)quinazolin-2-yl]amino}cyclohexyl)thiourea]	2 (Class 2: The value of percent of control at 10^−7 M was from 40% to 60% or the value of IC50 was from 50 nM to 200 nM.)
CN(C)c1nc(N[C@H]2CC[C@@H](NC(=S)NC(=O)/C=C/c3ccccc3)CC2)nc2ccccc12 [compound 326]	3 (Class 3: The value of percent of control at 10^−7 M was more than 60% or the value of IC50 was more than 200 nM.)
C/C=C/CNC(=S)N[C@H]1CC[C@@H](Nc2nc(N(C)C)c3ccccc3n2)CC1 [compound 327]	3 (Class 3: The value of percent of control at 10^−7 M was more than 60% or the value of IC50 was more than 200 nM.)
CN(C)c1nc(N[C@H]2CC[C@@H](NC(=S)NC3CCCCCC3)CC2)nc2ccccc12 [compound 328, N-cycloheptyl-N′-(cis-4-{[4-(dimethylamino)quinazolin-2-yl]amino}cyclohexyl)thiourea]	2 (Class 2: The value of percent of control at 10^−7 M was from 40% to 60% or the value of IC50 was from 50 nM to 200 nM.)
C[C@@H](NC(=S)N[C@H]1CC[C@@H](Nc2nc(N(C)C)c3ccccc3n2)CC1)c1ccccc1 [compound 329, N-(cis-4-{[4-(dimethylamino)quinazolin-2-yl]amino}cyclohexyl)-N′-[(1R)-1-phenylethyl]thiourea]	1 (Class 1: The value of percent of control at 10^−7 M was less than 40% or the value of IC50 was less than 50 nM.)
CCCCOC(=O)c1ccccc1NC(=O)N[C@H]1CC[C@@H](Nc2nc(N(C)C)c3ccccc3n2)CC1 [compound 330]	3 (Class 3: The value of percent of control at 10^−7 M was more than 60% or the value of IC50 was more than 200 nM.)
COC(=O)c1cc(NC(=O)N[C@H]2CC[C@@H](Nc3nc(N(C)C)c4ccccc4n3)CC2)cc(C(=O)OC)c1 [compound 331]	3 (Class 3: The value of percent of control at 10^−7 M was more than 60% or the value of IC50 was more than 200 nM.)
CN(C)c1nc(N[C@H]2CC[C@@H](NC(=O)Nc3ccc(OC(F)(F)F)cc3)CC2)nc2ccccc12 [compound 332]	3 (Class 3: The value of percent of control at 10^−7 M was more than 60% or the value of IC50 was more than 200 nM.)
Cc1cc(Br)cc(C)c1NC(=O)N[C@H]1CC[C@@H](Nc2nc(N(C)C)c3ccccc3n2)CC1 [compound 333, N-(4-bromo-2,6-dimethylphenyl)-N′-(cis-4-{[4-(dimethylamino)quinazolin-2-yl]amino}cyclohexyl)urea]	1 (Class 1: The value of percent of control at 10^−7 M was less than 40% or the value of IC50 was less than 50 nM.)

Structure (SMILES)	class
Cc1cc(Br)ccc1NC(=O)N[C@H]1CC[C@@H](Nc2nc(N(C)C)c3ccccc3n2)CC1 [compound 334]	1 (Class 1: The value of percent of control at 10^−7 M was less than 40% or the value of IC50 was less than 50 nM.)
CN(C)c1nc(N[C@H]2CC[C@@H](NC(=O)Nc3ccc4c(c3)C(F)(F)OC(F)(F)O4)CC2)nc2ccccc12 [compound 335]	3 (Class 3: The value of percent of control at 10^−7 M was more than 60% or the value of IC50 was more than 200 nM.)
CN(C)c1nc(N[C@H]2CC[C@@H](NC(=O)NCCc3cccs3)CC2)nc2ccccc12 [compound 337, N-(cis-4-{[4-(dimethylamino)quinazolin-2-yl]amino}cyclohexyl)-N′-[2-(2-thienyl)ethyl]urea]	2 (Class 2: The value of percent of control at 10^−7 M was from 40% to 60% or the value of IC50 was from 50 nM to 200 nM.)
CN(C)c1nc(N[C@H]2CC[C@@H](NC(=O)Nc3ccc4c(c3)OCCO4)CC2)nc2ccccc12 [compound 338, N-(2,3-dihydro-1,4-benzodioxin-6-yl)-N′-(cis-4-{[4-(dimethylamino)quinazolin-2-yl]amino}cyclohexyl)urea]	1 (Class 1: The value of percent of control at 10^−7 M was less than 40% or the value of IC50 was less than 50 nM.)
CC(C)c1cc(Br)c(NC(=O)N[C@H]2CC[C@@H](Nc3nc(N(C)C)c4ccccc4n3)CC2)c(Br)c1 [compound 339, N-(2,6-dibromo-4-isopropylphenyl)-N′-(cis-4-{[4-(dimethylamino)quinazolin-2-yl]amino}cyclohexyl)urea]	1 (Class 1: The value of percent of control at 10^−7 M was less than 40% or the value of IC50 was less than 50 nM.)
CN(C)c1nc(N[C@H]2CC[C@@H](NC(=O)Nc3ccccc3C#N)CC2)nc2ccccc12 [compound 340]	3 (Class 3: The value of percent of control at 10^−7 M was more than 60% or the value of IC50 was more than 200 nM.)
CN(C)c1nc(N[C@H]2CC[C@@H](NC(=O)Nc3cccs3)CC2)nc2ccccc12 [compound 341]	3 (Class 3: The value of percent of control at 10^−7 M was more than 60% or the value of IC50 was more than 200 nM.)
COc1ccc(NC(=O)N[C@H]2CC[C@@H](Nc3nc(N(C)C)c4ccccc4n3)CC2)cc1OC1CCCC1 [compound 342, N-[3-(cyclopentyloxy)-4-methoxyphenyl]-N′-(cis-4-{[4-(dimethylamino)quinazolin-2-yl]amino}cyclohexyl)urea]	1 (Class 1: The value of percent of control at 10^−7 M was less than 40% or the value of IC50 was less than 50 nM.)
CN(C)c1nc(N[C@H]2CC[C@@H](NC(=O)Nc3ccc4c(c3)OCCCO4)CC2)nc2ccccc12 [compound 343, N-(3,4-dihydro-2H-1,5-benzodioxepin-7-yl)-N′-(cis-4-{[4-(dimethylamino)quinazolin-2-yl]amino}cyclohexyl)urea]	1 (Class 1: The value of percent of control at 10^−7 M was less than 40% or the value of IC50 was less than 50 nM.)
CN(C)c1nc(N[C@H]2CC[C@@H](NC(=O)Nc3ccsc3)CC2)nc2ccccc12 [compound 344]	3 (Class 3: The value of percent of control at 10^−7 M was more than 60% or the value of IC50 was more than 200 nM.)
CN(C)c1nc(N[C@H]2CC[C@@H](NC(=O)Nc3ccc(C(C)(C)C)cc3)CC2)nc2ccccc12 [compound 345]	3 (Class 3: The value of percent of control at 10^−7 M was more than 60% or the value of IC50 was more than 200 nM.)
CCCCc1ccc(NC(=O)N[C@H]2CC[C@@H](Nc3nc(N(C)C)c4ccccc4n3)CC2)c(C)c1 [compound 346]	1 (Class 1: The value of percent of control at 10^−7 M was less than 40% or the value of IC50 was less than 50 nM.)
Cc1cc(NC(=O)N[C@H]2CC[C@@H](Nc3nc(N(C)C)c4ccccc4n3)CC2)c(C(F)(F)F)o1 [compound 347, N-(cis-4-{[4-(dimethylamino)quinazolin-2-yl]amino}cyclohexyl)-N′-[5-methyl-2-(trifluoromethyl)-3-furyl]urea]	1 (Class 1: The value of percent of control at 10^−7 M was less than 40% or the value of IC50 was less than 50 nM.)
CN(C)c1nc(N[C@H]2CC[C@@H](NC(=O)Nc3ccc(-c4ccccc4)s3)CC2)nc2ccccc12 [compound 348]	3 (Class 3: The value of percent of control at 10^−7 M was more than 60% or the value of IC50 was more than 200 nM.)
CN(C)c1nc(N[C@H]2CC[C@@H](NC(=O)Nc3cc(F)cc4c3OCOC4)CC2)nc2ccccc12 [compound 349, N-(cis-4-{[4-(dimethylamino)quinazolin-2-yl]amino}cyclohexyl)-N′-(6-fluoro-4H-1,3-benzodioxin-8-yl)urea]	2 (Class 2: The value of percent of control at 10^−7 M was from 40% to 60% or the value of IC50 was from 50 nM to 200 nM.)
CN(C)c1nc(N[C@H]2CC[C@@H](NC(=O)NC3CCN(C(=O)OCc4ccccc4)CC3)CC2)nc2ccccc12 [compound 350]	3 (Class 3: The value of percent of control at 10^−7 M was more than 60% or the value of IC50 was more than 200 nM.)
